Measured values taken from patent publication US20110280831A1, “COMBINATIONS COMPRISING METHOTREXATE AND DHODH INHIBITORS” (priority 2009, published 2011).

Target: human DHODH (Homo sapiens, UniProt Q02127)
Test: Inhibition of human DHODH activity assay (DCIP chromogen reduction)
Type: biochemical
Details: enzyme extracts, 10 min at room temperature, absorbance at 600 nm, duplicate; read-out: hDHODH IC50
Protocol: DHODH activity and its inhibition were studied using a chromogen reduction assay with DCIP (2,6-dichlorophenol-indophenol).
Enzyme extracts (8 μl, ˜1.5 μg of human protein) were incubated in 96-well plates. The assay mixture (200 μl) contained 200 μM CoQD, 100 μM L-DHO, 120 μM DCIP in the assay buffer (100 mM HEPES pH 8.0, 150 mM NaCl, 10% Glicerol, 0.05% Triton X-100) and 2 μl of test compound. The compounds were dissolved in DMSO at a stock concentration of 1 mM, and tested at different concentrations varying from 10 μM to 1 pM to calculate an IC50 (concentration of inhibitor required for 50% of inhibition).
The reaction was initiated by adding the enzyme and then incubated for 10 min at room temperature before measuring DCIP reduction by counting a decrease in absorbance at 600 nm using standard instrumentation (Spectramax).
All reactions were carried out in duplicate and graphs, determining IC50 values for each compound, were plotted using the ABase software.

Sequence of human DHODH (Q02127 whole entry): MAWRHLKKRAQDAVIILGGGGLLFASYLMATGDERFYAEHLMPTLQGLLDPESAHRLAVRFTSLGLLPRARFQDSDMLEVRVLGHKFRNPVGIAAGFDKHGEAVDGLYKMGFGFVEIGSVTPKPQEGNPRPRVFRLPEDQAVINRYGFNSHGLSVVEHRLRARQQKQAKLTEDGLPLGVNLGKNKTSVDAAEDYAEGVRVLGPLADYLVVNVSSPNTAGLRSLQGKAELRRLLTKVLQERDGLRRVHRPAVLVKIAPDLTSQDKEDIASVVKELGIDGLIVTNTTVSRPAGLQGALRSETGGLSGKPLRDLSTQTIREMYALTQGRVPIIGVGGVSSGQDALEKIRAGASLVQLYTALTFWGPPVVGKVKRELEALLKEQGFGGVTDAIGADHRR

| IC50 | SMILES |
| --- | --- |
| 105 nM | O=C(O)c1cc(C2CC2)ccc1Nc1cnc(-c2ccccc2)nc1 [Compound 1, 5-cyclopropyl-2-(2-phenylpyrimidin-5-ylamino)benzoic acid] |
| 98 nM | Cc1ccc(Nc2ccc(-c3cccc(C(F)(F)F)c3)nc2)c(C(=O)O)c1 [Compound 4, 5-Methyl-2-(6-(3-(trifluoromethyl)phenyl)pyridin-3-ylamino)benzoic acid] |
| 57 nM | O=C(O)c1cc(C2CC2)ccc1Nc1cnc(-c2c(F)cc(O)cc2F)nc1 [Compound 6, 5-cyclopropyl-2-(2-(2,6-difluoro-4-hydroxyphenyl)pyrimidin-5-ylamino)benzoic acid] |
| 49 nM | COc1ncc(Nc2ccc(C3CC3)cc2C(=O)O)cc1-c1ccccc1 [Compound 7, 5-Cyclopropyl-2-(6-methoxy-5-phenylpyridin-3-ylamino)benzoic acid] |
| 18 nM | Cc1ccc(Nc2cnc(-c3ccccc3)c(F)c2)c(C(=O)O)c1 [Compound 8, 2-(5-Fluoro-6-phenylpyridin-3-ylamino)-5-methylbenzoic acid] |
| 57 nM | O=C(O)c1cc(C2CC2)ccc1Nc1cnc(-c2ccccc2C2CC2)nc1 [Compound 14, 5-Cyclopropyl-2-(2-(2-cyclopropylphenyl)pyrimidin-5-ylamino)benzoic acid] |
| 113 nM | O=C(O)c1cc(C2CC2)ccc1Nc1cncc(-c2ccccc2)c1 [Compound 15, 5-cyclopropyl-2-(5-phenylpyridin-3-ylamino)benzoic acid] |
| 62 nM | Cc1ccc(Nc2cc(Cl)cnc2-c2ccccc2)c(C(=O)O)c1 [Compound 18, 2-(5-Chloro-2-phenylpyridin-3-ylamino)-5-methylbenzoic acid] |
| 10 nM | O=C(O)c1cc(C2CC2)ccc1Nc1cnc(-c2ccccc2)c(-c2ccccc2)c1 [Compound 19, 5-Cyclopropyl-2-(5,6-diphenylpyridin-3-ylamino)benzoic acid] |
| 114 nM | O=C(O)c1cc(C2CC2)ccc1Nc1cnc(-c2cccc(OC3CC3)c2)nc1 [Compound 22, 2-(2-(3-Cyclopropoxyphenyl)pyrimidin-5-ylamino)-5-cyclopropylbenzoic acid] |
| 28 nM | O=C(O)c1cc(C2CC2)ccc1Nc1cnc(C2CC2)c(-c2ccccc2)c1 [Compound 25, 5-cyclopropyl-2-(6-cyclopropyl-5-phenylpyridin-3-ylamino)benzoic acid] |
| 41 nM | Cc1ccc(Nc2cnc(N3CCCCC3)c(C)c2)c(C(=O)O)c1 [Compound 30, 5-Methyl-2-(5-methyl-6-(piperidin-1-yl)pyridin-3-ylamino)benzoic acid] |
| 119 nM | Cc1ccc(Nc2cnc(N3CCCCCC3)c(C)c2)c(C(=O)O)c1 [Compound 31, 2-(6-(Azepan-1-yl)-5-methylpyridin-3-ylamino)-5-methylbenzoic acid] |
| 109 nM | Cc1ccc(Nc2ccc(-c3ccncc3Cl)nc2)c(C(=O)O)c1 [Compound 34, 2-(3′-chloro-2,4′-bipyridin-5-ylamino)-5-methylbenzoic acid] |
| 190 nM | CCOc1cccc(-c2ccc(Nc3ccc(C)cc3C(=O)O)cn2)c1 [Compound 41, 2-(6-(3-Ethoxyphenyl)pyridin-3-ylamino)-5-methylbenzoic acid] |
| 30 nM | CCOc1cccc(-c2ncc(Nc3ccc(C)cc3C(=O)O)cc2C)c1 [Compound 42, 2-(6-(3-Ethoxyphenyl)-5-methylpyridin-3-ylamino)-5-methylbenzoic acid] |
| 78 nM | CCOc1cccc(-c2cc(C)c(Nc3ccc(C)cc3C(=O)O)cn2)c1 [Compound 44, 2-(6-(3-Ethoxyphenyl)-4-methylpyridin-3-ylamino)-5-methylbenzoic acid] |
| 138 nM | COc1cccc(-c2ncc(Nc3ccc(C(F)(F)F)cc3C(=O)O)cc2C)c1 [Compound 50, 2-(6-(3-Methoxyphenyl)-5-methylpyridin-3-ylamino)-5-(trifluoromethyl)benzoic acid] |
| 21 nM | COc1cccc(-c2ncc(Nc3ccc(C)cc3C(=O)O)cc2C)c1 [Compound 51, 2-(6-(3-Methoxyphenyl)-5-methylpyridin-3-ylamino)-5-methylbenzoic acid] |
| 19 nM | CCOc1ccc(F)c(-c2ccc(Nc3ccc(C)cc3C(=O)O)cn2)c1 [Compound 54, 2-(6-(5-Ethoxy-2-fluorophenyl)pyridin-3-ylamino)-5-methylbenzoic acid] |
| 91 nM | Cc1ccc(Nc2ccc(-c3ccccc3F)nc2)c(C(=O)O)c1 [Compound 57, 2-(6-(2-Fluorophenyl)pyridin-3-ylamino)-5-methylbenzoic acid] |

| IC50 | SMILES |
| --- | --- |
| 28 nM | Cc1ccc(Nc2ccc(-c3cc(OC(C)C)ccc3F)nc2)c(C(=O)O)c1 [Compound 66, 2-(6-(2-Fluoro-5-isopropoxyphenyl)pyridin-3-ylamino)-5-methylbenzoic acid] |
| 11 nM | Cc1ccc(Nc2cnc(-c3cccc(OC(C)C)c3)c(C)c2)c(C(=O)O)c1 [Compound 67, 2-(6-(3-Isopropoxyphenyl)-5-methylpyridin-3-ylamino)-5-methylbenzoic acid] |
| 190 nM | Cc1ccc(Nc2cnc(-c3cccc(C(N)=O)c3)c(C)c2)c(C(=O)O)c1 [Compound 73, 2-(6-(3-Carbamoylphenyl)-5-methylpyridin-3-ylamino)-5-methylbenzoic acid] |
| 97 nM | COc1ccc(F)c(-c2cc(C)c(Nc3ccc(C)cc3C(=O)O)cn2)c1 [Compound 75, 2-(6-(2-Fluoro-5-methoxyphenyl)-4-methylpyridin-3-ylamino)-5-methylbenzoic acid] |
| 12 nM | COc1cccc(-c2ncc(Nc3ccc(C)cc3C(=O)O)cc2C(F)(F)F)c1 [Compound 77, 2-(6-(3-Methoxyphenyl)-5-(trifluoromethyl)pyridin-3-ylamino)-5-methylbenzoic acid] |
| 33 nM | Cc1ccc(Nc2cnc(-c3cccc(C(=O)N(C)C)c3)c(C)c2)c(C(=O)O)c1 [Compound 79, 2-(6-(3-(Dimethylcarbamoyl)phenyl)-5-methylpyridin-3-ylamino)-5-methylbenzoic acid] |
| 5 nM | Cc1cc(Nc2ccc(C3CC3)cc2C(=O)O)cnc1-c1cccc(OC(F)(F)F)c1 [Compound 89, 5-Cyclopropyl-2-(5-methyl-6-(3-(trifluoromethoxy)phenyl)pyridin-3-ylamino)benzoic acid] |
| 6 nM | Cc1cc(Nc2ccc(C3CC3)cc2C(=O)O)cnc1-c1ccccc1 [Compound 91, 5-Cyclopropyl-2-(5-methyl-6-phenylpyridin-3-ylamino)benzoic acid] |
| 20 nM | Cc1ccc(Nc2cnc(-c3ccccc3C(F)(F)F)c(C)c2)c(C(=O)O)c1 [Compound 93, 5-Methyl-2-(5-methyl-6-(2-(trifluoromethyl)phenyl)pyridin-3-ylamino)benzoic acid] |
| 10 nM | Cc1ccc(Nc2cnc(-c3cccc(Cl)c3)c(C)c2)c(C(=O)O)c1 [Compound 95, 2-(6-(3-Chlorophenyl)-5-methylpyridin-3-ylamino)-5-methylbenzoic acid] |
| 37 nM | Cc1ccc(Nc2cnc(-c3ccncc3F)c(C)c2)c(C(=O)O)c1 [Compound 101, 2-(3′-Fluoro-3-methyl-2,4′-bipyridin-5-ylamino)-5-methylbenzoic acid] |
| 2 nM | O=C(O)c1cc(C2CC2)ccc1Nc1cnc(-c2ccccc2)c(C(F)(F)F)c1 [Compound 105, 5-Cyclopropyl-2-(6-phenyl-5-(trifluoromethyl)pyridin-3-ylamino)benzoic acid] |
| 7 nM | COc1cccc(-c2ncc(Nc3ccc(C4CC4)cc3C(=O)O)cc2C(F)(F)F)c1 [Compound 107, 5-Cyclopropyl-2-(6-(3-methoxyphenyl)-5-(trifluoromethyl)pyridin-3-ylamino)benzoic acid] |
| 145 nM | O=C(O)c1cc(Cl)ccc1Nc1ccc(-c2ccccc2Cl)nc1 [Compound 110, 5-Chloro-2-(6-(2-chlorophenyl)pyridin-3-ylamino)benzoic acid] |
| 4 nM | O=C(O)c1cc(C2CC2)ccc1Nc1ccc(-c2ccccc2Cl)nc1 [Compound 112, 2-(6-(2-Chlorophenyl)pyridin-3-ylamino)-5-cyclopropylbenzoic acid] |
| 90 nM | Cc1ccc(Nc2ccc(-c3ccncc3F)nc2)c(C(=O)O)c1 [Compound 116, 2-(3′-Fluoro-2,4′-bipyridin-5-ylamino)-5-methylbenzoic acid] |
| 9 nM | Cc1ccc(Nc2cnc(-c3cccc(C(=O)N4CCCC4)c3)c(C)c2)c(C(=O)O)c1 [Compound 125, 5-Methyl-2-(5-methyl-6-(3-(pyrrolidine-1-carbonyl)phenyl)pyridin-3-ylamino)benzoic acid] |
| 12 nM | Cc1ccc(Nc2cnc(-c3cccc(C(=O)NC4CC4)c3)c(C)c2)c(C(=O)O)c1 [Compound 126, 2-(6-(3-(Cyclopropylcarbamoyl)phenyl)-5-methylpyridin-3-ylamino)-5-methylbenzoic acid] |
| 9 nM | O=C(O)c1cc(C2CC2)ccc1Nc1cnc(-c2ccccc2C(F)(F)F)nc1 [Compound 128, 2-(2-(2-trifluoromethylphenyl)pyrimidin-5-ylamino)-5-cyclopropylbenzoic acid] |
| 12 nM | Cc1ccccc1-c1ncc(Nc2ccc(C3CC3)cc2C(=O)O)cn1 [Compound 129, 2-(2-o-tolylpyrimidin-5-ylamino)-5-cyclopropylbenzoic acid] |
| 38 nM | O=C(O)c1cc(C2CC2)ccc1Nc1cnc(-c2cc(F)ccc2F)nc1 [Compound 131, 2-(2-(2,5-difluorophenyl)pyrimidin-5-ylamino)-5-cyclopropylbenzoic acid] |
